Data: PubChem BioAssay AID1963842 (Molecular Pharmacology Branch, DTP, NCI, 2024)

Test system: 677734-321-R-J1-PDC complex spheroid viability
Experiment: Anticancer human tumor 677734-321-R-J1-PDC patient-derived soft tissue sarcoma cell line growth inhibition [POLQ]
Settings: for IC50: curve of first compound; for viability, T/C: stronger effect = lower value
Protocol: Multicellular complex tumor spheroid response to Polymerase (POL) inhibitors (novobiocin, ART-558, RP6685) in combination with a variety of drugs and investigational agents in selected tumor cell lines
The POL inhibitors (novobiocin, ART-558, and RP6685) were evaluated both individually and in combination with standard of care and investigational anticancer small molecules within a complex spheroid model of solid tumors. . Complex spheroids include a stromal component modeled by human endothelial cells (HUVEC) and fibroblasts modeled by human mesenchymal stem cells (MSCs). The concentration ranges selected for each drug and investigational agent were based upon clinically achievable concentrations if the clinical Cmax of the agent was known.
Compounds. The drugs and investigational agents: novobiocin (NSC847541), ART-558 (NSC835418), RP-6685 (NSC848927), peposertib (NSC802822), ceralasertib (NSC780249), elimusertib (NSC800525), camonsertib (NSC841442), AZD-1390 (NSC803789), olaparib (NSC753686), talazoparib (NSC767125), rucaparib (NSC756644), sotorasib (NSC818433), MRTX-1133 (NSC836407), SN-38 (NSC673596), topotecan (NSC609699), epotoside (NSC141540), doxorubicin (NSC123127), gemcitabine (NSC613327), 5-fluorouracil (NSC19893), paclitaxel (NSC125973), vemurafenib (NSC761431), MSA-2 (NSC828583), SN-011 (NSC837082), adavosertib (NSC754352), prexasertib (NSC758257), carboplatin (NSC241240) and oxaliplatin (NSC266046), were obtained from the National Cancer Institute (NCI) Developmental Therapeutics Program Chemical Repository (21). The FDA-approved anticancer drug set is available from the Developmental Therapeutics Program at https://dtp.cancer.gov/organization/dscb/obtaining/. […] The stock solutions were prepared in dimethyl sulfoxide (DMSO, Sigma-Aldrich, St. Louis, MO, cat. D2650), except for the platinum compounds which were prepared in saline (Quality Biological, Gaithersburg, MD, cat. 114-055-101), at 800-fold the tested concentration and stored at -70 degrees C prior to their use. All drugs and investigational agents were tested over a range starting from a high concentration at or near the clinical Cmax and decreasing in half-log increments. If the clinical Cmax for an agent had not been determined, the highest concentration tested was 10 microM, except for SN-38, which was tested at a high concentration of 1 microM.
Cell Culture. All cells were maintained in an incubator at 37 degrees C and 5% CO2 with 95% humidity. The PDC lines were cultured according to standard operating procedures established by the NCI PDMR (https://pdmr.cancer.gov). Table 3 of the manuscript, lists the cell lines along with the number of the three cell types plated to form the mct-spheroids and media for tumor cell growth. After thawing, all PDC lines, except 997537-175-T-J1-PDC and 415267-285-R-J2-PDC, were cultured in Matrigel-coated flasks prepared with a working solution of 1X Ham's F-12 nutrient mix, without supplementation (Thermo Fisher Scientific, cat. 11765054), 100 U/mL penicillin-streptomycin (Thermo Fisher Scientific, cat. 15140122), and 2.5% Matrigel (Corning Inc., Corning, NY, cat. 354248) for the first three passages. The two PDC lines 997537-175-T-J1-PDC and 415267-285-R-J2-PDC were cultured on uncoated flasks. The 857933-349-R-J2-PDC line was cultured in 6C/Colon 1B media containing advanced DMEM/F-12 (Thermo Fisher Scientific, cat. 12634028), 10 mM HEPES (Thermo Fisher Scientific, cat. 15630080), 1X GlutaMAX supplement (Thermo Fisher Scientific, cat. 35050061), 0.1 mg/mL primocin (InvivoGen, San Diego, CA, cat. ant-pm-2), 10% defined fetal bovine serum, heat inactivated (HyClone Laboratories Inc., Logan, UT, cat. SH30070.03HI), 50% L-WRN conditioned media (ATCC, cat. CRL-3276), 1.25 mM N-Acetyl-L-cysteine (Sigma-Aldrich, cat. A9165), 10 mM nicotinamide (Sigma-Aldrich, cat. N0636), 1X B-27 supplement (Thermo Fisher Scientific, cat. 17504044), 1X N-2 supplement (Thermo Fisher Scientific, cat. […]

[1] = second compound 0.0316 µM, first compound 0.0316 µM
[2] = second compound 0.0316 µM, first compound 0.1 µM
[3] = second compound 0.0316 µM, first compound 0.316 µM
[4] = second compound 0.0316 µM, first compound 1 µM
[5] = second compound 0.0316 µM, first compound 3.16 µM
[6] = second compound 0.0316 µM, first compound 10 µM
[7] = second compound 0.1 µM, first compound 0.0316 µM
[8] = second compound 0.1 µM, first compound 0.1 µM
[9] = second compound 0.1 µM, first compound 0.316 µM
[10] = second compound 0.1 µM, first compound 1 µM
[11] = second compound 0.1 µM, first compound 3.16 µM
[12] = second compound 0.1 µM, first compound 10 µM
[13] = second compound 0.316 µM, first compound 0.0316 µM
[14] = second compound 0.316 µM, first compound 0.1 µM
[15] = second compound 0.316 µM, first compound 0.316 µM
[16] = second compound 0.316 µM, first compound 1 µM
[17] = second compound 0.316 µM, first compound 3.16 µM
[18] = second compound 0.316 µM, first compound 10 µM
[19] = second compound 1 µM, first compound 0.0316 µM
[20] = second compound 1 µM, first compound 0.1 µM
[21] = second compound 1 µM, first compound 0.316 µM
[22] = second compound 1 µM, first compound 1 µM
[23] = second compound 1 µM, first compound 3.16 µM
[24] = second compound 1 µM, first compound 10 µM
[25] = second compound 3.16 µM, first compound 0.0316 µM
[26] = second compound 3.16 µM, first compound 0.1 µM
[27] = second compound 3.16 µM, first compound 0.316 µM
[28] = second compound 3.16 µM, first compound 1 µM
[29] = second compound 3.16 µM, first compound 3.16 µM
[30] = second compound 3.16 µM, first compound 10 µM
[31] = second compound 10 µM, first compound 0.0316 µM
[32] = second compound 10 µM, first compound 0.1 µM
[33] = second compound 10 µM, first compound 0.316 µM
[34] = second compound 10 µM, first compound 1 µM
[35] = second compound 10 µM, first compound 3.16 µM
[36] = second compound 10 µM, first compound 10 µM
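Also: spheroids exposed to compounds for one week.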
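For viability, T/C in this document: 100% = vehicle DMSO treated spheroids.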

With `CC(C)n1c(=O)n(C)c2cnc3cc(F)c(-c4ccc(OCCCN5CCCCC5)nc4)cc3c21` + COC1C(OC(N)=O)C(O)C(Oc2ccc3c(O)c(NC(=O)c4ccc(O)c(CC=C(C)C)c4)c(=O)oc3c2C)OC1(C)C the IC50 (second compound 0.0316 µM) was greater than 10 µM, the IC50 (second compound 0.1 µM) was greater than 10 µM and the IC50 (second compound 0.316 µM) was greater than 10 µM. For the same compound, the IC50 (second compound 1 µM) was greater than 10 µM, the IC50 (second compound 3.16 µM) was greater than 10 µM and the IC50 (second compound 10 µM) was greater than 10 µM. For the same compound, the viability, T/C [1] was 117%, the viability, T/C [2] was 104% and the viability, T/C [3] was 109%. For the same compound, the viability, T/C [4] was 107%, the viability, T/C [5] was 111% and the viability, T/C [6] was 110%. The viability, T/C [7] was 104%, the viability, T/C [8] was 109% and the viability, T/C [9] was 106%. It also gave a viability, T/C [10] of 111%, a viability, T/C [11] of 117% and a viability, T/C [12] of 101%. It also gave a viability, T/C [13] of 108%, a viability, T/C [14] of 107% and a viability, T/C [15] of 106%. For the same compound, the viability, T/C [16] was 113%, the viability, T/C [17] was 112% and the viability, T/C [18] was 106%. The viability, T/C [19] was 108%, the viability, T/C [20] was 102% and the viability, T/C [21] was 113%. For the same compound, the viability, T/C [22] was 113%, the viability, T/C [23] was 109% and the viability, T/C [24] was 107%. For the same compound, the viability, T/C [25] was 107%, the viability, T/C [26] was 107% and the viability, T/C [27] was 106%. For the same compound, the viability, T/C [28] was 115%, the viability, T/C [29] was 104% and the viability, T/C [30] was 107%. The viability, T/C [31] was 109%, the viability, T/C [32] was 106% and the viability, T/C [33] was 111%. The viability, T/C [34] was 113%, the viability, T/C [35] was 106% and the viability, T/C [36] was 102%.

Compound `CCc1cc2c(N3CCc4c(cc(Cn5ccnc5)cc4-c4cn(C)nc4C(F)(F)F)C3=O)ccnc2c(OC)n1` + COC1C(OC(N)=O)C(O)C(Oc2ccc3c(O)c(NC(=O)c4ccc(O)c(CC=C(C)C)c4)c(=O)oc3c2C)OC1(C)C has an IC50 (second compound 0.0316 µM) greater than 10 µM, an IC50 (second compound 0.1 µM) greater than 10 µM and an IC50 (second compound 0.316 µM) greater than 10 µM. The IC50 (second compound 1 µM) was greater than 10 µM, the IC50 (second compound 3.16 µM) was greater than 10 µM and the IC50 (second compound 10 µM) was greater than 10 µM. For the same compound, the viability, T/C [1] was 111%, the viability, T/C [2] was 108% and the viability, T/C [3] was 105%. It also gave a viability, T/C [4] of 106%, a viability, T/C [5] of 88.7% and a viability, T/C [6] of 62.5%. The viability, T/C [7] was 108%, the viability, T/C [8] was 110% and the viability, T/C [9] was 109%. The viability, T/C [10] was 104%, the viability, T/C [11] was 92.2% and the viability, T/C [12] was 62.6%. The viability, T/C [13] was 117%, the viability, T/C [14] was 105% and the viability, T/C [15] was 98.4%. For the same compound, the viability, T/C [16] was 98.7%, the viability, T/C [17] was 84.8% and the viability, T/C [18] was 64.6%. The viability, T/C [19] was 113%, the viability, T/C [20] was 103% and the viability, T/C [21] was 96.1%. It also gave a viability, T/C [22] of 100%, a viability, T/C [23] of 83.5% and a viability, T/C [24] of 58.6%. It also gave a viability, T/C [25] of 117%, a viability, T/C [26] of 101% and a viability, T/C [27] of 108%. The viability, T/C [28] was 97.5%, the viability, T/C [29] was 93.1% and the viability, T/C [30] was 63.6%. It also gave a viability, T/C [31] of 112%, a viability, T/C [32] of 106% and a viability, T/C [33] of 109%. The viability, T/C [34] was 102%, the viability, T/C [35] was 81.6% and the viability, T/C [36] was 65%.

For `O=C(c1cc(Cc2n[nH]c(=O)c3ccccc23)ccc1F)N1CCN(C(=O)C2CC2)CC1` + COC1C(OC(N)=O)C(O)C(Oc2ccc3c(O)c(NC(=O)c4ccc(O)c(CC=C(C)C)c4)c(=O)oc3c2C)OC1(C)C, the IC50 (second compound 0.0316 µM) was greater than 10 µM, the IC50 (second compound 0.1 µM) was greater than 10 µM and the IC50 (second compound 0.316 µM) was greater than 10 µM. For the same compound, the IC50 (second compound 1 µM) was greater than 10 µM, the IC50 (second compound 3.16 µM) was greater than 10 µM and the IC50 (second compound 10 µM) was greater than 10 µM. It also gave a viability, T/C [1] of 108%, a viability, T/C [2] of 105% and a viability, T/C [3] of 103%. It also gave a viability, T/C [4] of 110%, a viability, T/C [5] of 102% and a viability, T/C [6] of 86.4%. For the same compound, the viability, T/C [7] was 104%, the viability, T/C [8] was 112% and the viability, T/C [9] was 101%. For the same compound, the viability, T/C [10] was 104%, the viability, T/C [11] was 107% and the viability, T/C [12] was 79.6%. The viability, T/C [13] was 112%, the viability, T/C [14] was 111% and the viability, T/C [15] was 104%. For the same compound, the viability, T/C [16] was 111%, the viability, T/C [17] was 111% and the viability, T/C [18] was 78.1%. For the same compound, the viability, T/C [19] was 108%, the viability, T/C [20] was 105% and the viability, T/C [21] was 111%. The viability, T/C [22] was 99.9%, the viability, T/C [23] was 107% and the viability, T/C [24] was 81.2%. It also gave a viability, T/C [25] of 117%, a viability, T/C [26] of 111% and a viability, T/C [27] of 113%. For the same compound, the viability, T/C [28] was 103%, the viability, T/C [29] was 100% and the viability, T/C [30] was 87.3%. For the same compound, the viability, T/C [31] was 118%, the viability, T/C [32] was 106% and the viability, T/C [33] was 108%. It also gave a viability, T/C [34] of 112%, a viability, T/C [35] of 103% and a viability, T/C [36] of 88%.
